Values after ≈ are worked out from the molar mass of the structure shown.

MIC and IC50 data for 22 compounds are collected here from ChEMBL document CHEMBL4673363, “Highly potent, broadly active antifungal agents for the treatment of invasive fungal infections” (Bioorg Med Chem Lett, 2021).

A short description of assay [1]: Antifungal activity against Mucor ramosissimus ATCC 90286. Format: functional.
For the next assay, the system named is Aspergillus flavus. The experiment in a line: Antifungal activity against Aspergillus flavus ATCC 3631. It is filed as functional.
For the next assay, the system named is Mucor circinelloides. Put plainly: Antifungal activity against Mucor circinelloides ATCC 26579. It is filed as functional.
The next assay concerns Fusarium solani. Put plainly: Antifungal activity against Fusarium solani ATCC 58877. It is filed as functional.
A further assay relates to Aspergillus fumigatus. Put plainly: Antifungal activity against Aspergillus fumigatus ATCC 3626. It is filed as functional.
The nature of assay [2]: Antifungal activity against Fusarium falciforme ATCC 3636. It is filed as functional.
In the next assay the test system is Rhizopus. The experiment in a line: Antifungal activity against Rhizopus assessed as inhibition of fungal growth by broth dilution assay. It is filed as functional, organism-based. A general note: Dilution methods test growth across graded concentrations, often in twofold steps.
Assay [3] concerns Candida. Put plainly: Antifungal activity against Candida assessed as inhibition of fungal growth by broth dilution assay. Format: functional, organism-based.
The test system of the next assay is Aspergillus. Put plainly: Antifungal activity against Aspergillus assessed as inhibition of fungal growth by broth dilution assay. Format: functional, organism-based.
The next assay relates to Trichophyton. The experiment in a line: Antifungal activity against Trichophyton after 48 hrs by CLSI-based broth microdilution method. Format: functional.
Assay [4] relates to Candida. The experiment in a line: Antifungal activity against Candida after 48 hrs by CLSI-based broth microdilution method. It is filed as functional.

Consider `Cn1c(-c2ccc(C3CCN(C(=N)N)CC3)cc2)nnc1-c1ccc(C2CCN(C(=N)N)CC2)cc1`, for which the MIC (as a rule, the lowest concentration that inhibits growth of the organism) in [1] is > 100 µg/mL; in the assay with Aspergillus flavus, 1.56 µg/mL (≈ 3.21 µM); against Mucor circinelloides it was > 100 µg/mL; with Fusarium solani, 0.78 µg/mL (≈ 1.61 µM); against Aspergillus fumigatus, 1.56 µg/mL (≈ 3.21 µM); in [2], 0.78 µg/mL (≈ 1.61 µM).
On to `NC(N)=N/N=C/c1ccc(OCc2ccc(Cl)c(Cl)c2)cc1`, for which the IC50 in the assay with Rhizopus, in the assay with Candida [3] and with Aspergillus was > 12 µM in each case.
Take `N=C(N)N1CC=C(c2ccc(-c3nnc(-c4ccc(C5=CCN(C(=N)N)CC5)cc4)n3Cc3ccccc3)cc2)CC1`: the MIC in assay [1] turned out to be 3.13 µg/mL (≈ 5.61 µM); in the assay on Aspergillus flavus it was 1.56 µg/mL (≈ 2.8 µM); in the assay with Mucor circinelloides, 1.56 µg/mL (≈ 2.8 µM); against Fusarium solani it was 0.05 µg/mL (≈ 0.0897 µM); with Aspergillus fumigatus, 0.39 µg/mL (≈ 0.699 µM); in [2], 0.1 µg/mL (≈ 0.179 µM).
With `Cn1c(-c2ccc(CNC(=N)N)cc2)cnc1-c1ccc(CNC(=N)N)cc1`, the MIC (in [1]; with Aspergillus flavus; in the assay on Mucor circinelloides; against Fusarium solani; in the assay on Aspergillus fumigatus; in assay [2]) was > 100 µg/mL throughout.
Regarding `N=C(N)N1CC=C(c2ccc(-c3nnc(-c4ccc(C5=CCN(C(=N)N)CC5)cc4)n3C3CCCCC3)cc2)CC1`, the MIC was determined as 1.56 µg/mL (≈ 2.84 µM) in assay [1]; 0.78 µg/mL (≈ 1.42 µM) with Aspergillus flavus; 0.39 µg/mL (≈ 0.709 µM) in the assay with Mucor circinelloides; 0.39 µg/mL (≈ 0.709 µM) in the assay on Fusarium solani; 0.39 µg/mL (≈ 0.709 µM) in the assay with Aspergillus fumigatus; 0.2 µg/mL (≈ 0.364 µM) in assay [2].
Turning to `Cn1c(-c2ccc(C3=CCN(C(=N)N)CC3)cc2)nnc1-c1ccc(C2=CCN(C(=N)N)CC2)c(C(F)(F)F)c1`, the MIC in assay [1] was 3.13 µg/mL (≈ 5.69 µM); in the assay on Aspergillus flavus, 0.39 µg/mL (≈ 0.71 µM); against Mucor circinelloides, 0.78 µg/mL (≈ 1.42 µM); against Fusarium solani, 0.2 µg/mL (≈ 0.364 µM); against Aspergillus fumigatus, 0.2 µg/mL (≈ 0.364 µM); in [2], 0.2 µg/mL (≈ 0.364 µM).
`Cc1cc(C2=CCN(C(=N)N)CC2)ccc1-c1nnc(-c2ccc(C3=CCN(C(=N)N)CC3)cc2)n1C`: the MIC in [1] worked out at 6.25 µg/mL (≈ 12.6 µM); in the assay with Aspergillus flavus it was 0.39 µg/mL (≈ 0.787 µM); in the assay with Mucor circinelloides, 3.13 µg/mL (≈ 6.32 µM); with Fusarium solani, 0.2 µg/mL (≈ 0.404 µM); against Aspergillus fumigatus, 0.2 µg/mL (≈ 0.404 µM); in [2] it was 0.2 µg/mL (≈ 0.404 µM).
For the compound `Cc1cc(-c2nnc(-c3ccc(C4=CCN(C(=N)N)CC4)cc3)o2)ccc1C1=CCN(C(=N)N)CC1`, the MIC in assay [1] was 25 µg/mL (≈ 51.8 µM); in the assay on Aspergillus flavus, 6.25 µg/mL (≈ 13 µM); in the assay on Mucor circinelloides it was 25 µg/mL (≈ 51.8 µM); in the assay with Fusarium solani it was 1.56 µg/mL (≈ 3.23 µM); in the assay with Aspergillus fumigatus, > 25 µg/mL; in assay [2], 0.39 µg/mL (≈ 0.808 µM).
Regarding `N=C(N)N1CC=C(c2ccc(-c3nnc(-c4ccc(C5=CCN(C(=N)N)CC5)cc4)o3)cc2)CC1`, the MIC in assay [1] was 100 µg/mL (≈ 213 µM); against Aspergillus flavus it was 3.13 µg/mL (≈ 6.68 µM); in the assay with Mucor circinelloides, 100 µg/mL (≈ 213 µM); with Fusarium solani, 6.25 µg/mL (≈ 13.3 µM); in the assay with Aspergillus fumigatus it was 3.13 µg/mL (≈ 6.68 µM); in assay [2] it was 0.39 µg/mL (≈ 0.832 µM).
With `Cn1c(-c2ccc(C3=CCN(C(=N)N)CC3)cc2)cnc1-c1ccc(C2=CCN(C(=N)N)CC2)cc1`, the MIC was 6.25 µg/mL (≈ 13 µM) in assay [1]; 0.39 µg/mL (≈ 0.811 µM) against Aspergillus flavus; 0.78 µg/mL (≈ 1.62 µM) with Mucor circinelloides; 3.13 µg/mL (≈ 6.51 µM) with Fusarium solani; 0.2 µg/mL (≈ 0.416 µM) with Aspergillus fumigatus; < 0.1 µg/mL in assay [2].
For the compound `CCn1c(-c2ccc(C3=CCN(C(=N)N)CC3)cc2)nnc1-c1ccc(C2=CCN(C(=N)N)CC2)cc1`, the MIC in assay [1] is 0.78 µg/mL (≈ 1.57 µM); in the assay on Aspergillus flavus, < 0.012 µg/mL; with Mucor circinelloides it was 0.2 µg/mL (≈ 0.404 µM); in the assay on Fusarium solani it was < 0.012 µg/mL; against Aspergillus fumigatus it was < 0.012 µg/mL; in [2], < 0.012 µg/mL.
In the case of `Cc1cc(C2=CCN(C(=N)N)CC2)ccc1-c1nnc(-c2ccc(C3=CCN(C(=N)N)CC3)cc2C)n1C`, the MIC in assay [1] came out at 6.25 µg/mL (≈ 12.3 µM); in the assay with Aspergillus flavus it was 0.39 µg/mL (≈ 0.765 µM); with Mucor circinelloides, 1.56 µg/mL (≈ 3.06 µM); against Fusarium solani it was 0.2 µg/mL (≈ 0.392 µM); in the assay on Aspergillus fumigatus, 0.78 µg/mL (≈ 1.53 µM); in assay [2], 0.78 µg/mL (≈ 1.53 µM).
As for `Cn1c(-c2ccc(C3=CCN(C(=N)N)C3)cc2)nnc1-c1ccc(C2=CCN(C(=N)N)C2)cc1`, the MIC in assay [1] amounted to 6.25 µg/mL (≈ 13.8 µM); against Aspergillus flavus it was 0.39 µg/mL (≈ 0.86 µM); in the assay on Mucor circinelloides, 0.78 µg/mL (≈ 1.72 µM); with Fusarium solani it was 0.2 µg/mL (≈ 0.441 µM); in the assay with Aspergillus fumigatus it was 0.2 µg/mL (≈ 0.441 µM); in assay [2], 0.05 µg/mL (≈ 0.11 µM).
Consider `Cc1cc(C2=CCN(C(=N)N)CC2)ccc1-c1nnc(-c2ccc(C3=CCN(C(=N)N)CC3)cc2)o1`, for which the MIC is 25 µg/mL (≈ 51.8 µM) in assay [1]; 0.31 µg/mL (≈ 0.642 µM) in the assay on Aspergillus flavus; 12.5 µg/mL (≈ 25.9 µM) in the assay on Mucor circinelloides; 0.78 µg/mL (≈ 1.62 µM) against Fusarium solani; 0.78 µg/mL (≈ 1.62 µM) against Aspergillus fumigatus; 0.2 µg/mL (≈ 0.414 µM) in [2].
In the case of `Cn1c(-c2ccc(N3CCN(C(=N)N)CC3)cc2)nnc1-c1ccc(N2CCN(C(=N)N)CC2)cc1`, the MIC was > 100 µg/mL in [1]; 0.78 µg/mL (≈ 1.6 µM) against Aspergillus flavus; > 100 µg/mL with Mucor circinelloides; 1.56 µg/mL (≈ 3.2 µM) with Fusarium solani; 0.39 µg/mL (≈ 0.8 µM) in the assay with Aspergillus fumigatus; 0.39 µg/mL (≈ 0.8 µM) in assay [2].
Turning to `Cn1c(-c2ccc(C3=CCN(C(=N)N)CC3)cc2)nnc1-c1ccc(C2=CCN(C(=N)N)CC2)cc1`, the MIC stood at 0.39 µg/mL (≈ 0.81 µM) in assay [1]; 0.1 µg/mL (≈ 0.208 µM) against Aspergillus flavus; 0.2 µg/mL (≈ 0.415 µM) in the assay with Mucor circinelloides; 0.024 µg/mL (≈ 0.0498 µM) against Fusarium solani; 0.1 µg/mL (≈ 0.208 µM) in the assay on Aspergillus fumigatus; 0.024 µg/mL (≈ 0.0498 µM) in [2].
Turning to `COCCn1c(-c2ccc(C3=CCN(C(=N)N)CC3)cc2)nnc1-c1ccc(C2=CCN(C(=N)N)CC2)cc1`, the MIC came to 1.56 µg/mL (≈ 2.97 µM) in assay [1]; 0.2 µg/mL (≈ 0.38 µM) with Aspergillus flavus; 0.39 µg/mL (≈ 0.742 µM) in the assay on Mucor circinelloides; 0.05 µg/mL (≈ 0.0951 µM) in the assay with Fusarium solani; 0.1 µg/mL (≈ 0.19 µM) in the assay with Aspergillus fumigatus; 0.05 µg/mL (≈ 0.0951 µM) in assay [2].
Consider `Cc1cc(-c2nnc(-c3ccc(C4=CCN(C(=N)N)CC4)c(C)c3)n2C)ccc1C1=CCN(C(=N)N)CC1`, for which the MIC came to 50 µg/mL (≈ 98.1 µM) in [1]; 1.56 µg/mL (≈ 3.06 µM) against Aspergillus flavus; 6.25 µg/mL (≈ 12.3 µM) against Mucor circinelloides; 0.78 µg/mL (≈ 1.53 µM) in the assay with Fusarium solani; 0.78 µg/mL (≈ 1.53 µM) in the assay on Aspergillus fumigatus; 0.78 µg/mL (≈ 1.53 µM) in assay [2].
For the compound `Cc1ccc(Oc2ccccc2-c2csc(N=C3NCCCN3)n2)c(C)c1` [ABAFUNGIN], the MIC in the assay on Candida [3] and in the assay with Aspergillus (time 48 hrs) was 0.5 µg/mL (≈ 1.32 µM) in each case.
With `C[C@@H]1[C@H](O)[C@@H](C)/C=C/C=C/C=C/C=C/C=C/C=C/C=C/[C@H](O[C@@H]2O[C@H](C)[C@@H](O)[C@H](N)[C@@H]2O)C[C@@H]2O[C@](O)(C[C@@H](O)C[C@@H](O)[C@H](O)CC[C@@H](O)C[C@@H](O)CC(=O)O[C@H]1C)C[C@H](O)[C@H]2C(=O)O` [AMPHOTERICIN B], the MIC in assay [1] was 3.13 µg/mL (≈ 3.39 µM); against Aspergillus flavus, 3.13 µg/mL (≈ 3.39 µM); against Mucor circinelloides it was 1.56 µg/mL (≈ 1.69 µM); against Fusarium solani, 3.13 µg/mL (≈ 3.39 µM); in the assay on Aspergillus fumigatus it was 3.13 µg/mL (≈ 3.39 µM); in assay [2] it was 3.13 µg/mL (≈ 3.39 µM).
`CC(C)(C)c1cc(C(C)(C)C)c2[nH]c(C(C)(C)C)c(C[C@H](NC(=O)[C@@H](N)CCCNC(=N)N)C(=O)N[C@@H](CCCNC(=N)N)C(=O)NCCc3ccccc3)c2c1` [LTX-109]: the minimal inhibitory concentration (MIC) was found to be 8 µg/mL (≈ 10.2 µM) in the assay with Trichophyton and 4 µg/mL (≈ 5.08 µM) against Candida [4].
`CC[C@@H]([C@H](C)O)n1ncn(-c2ccc(N3CCN(c4ccc(OC[C@@H]5CO[C@@](Cn6cncn6)(c6ccc(F)cc6F)C5)cc4)CC3)cc2)c1=O` [POSACONAZOLE]: the MIC turned out to be 0.78 µg/mL (≈ 1.11 µM) in [1]; 0.78 µg/mL (≈ 1.11 µM) against Aspergillus flavus; 1.56 µg/mL (≈ 2.23 µM) against Mucor circinelloides; 1.56 µg/mL (≈ 2.23 µM) in the assay on Fusarium solani; 0.39 µg/mL (≈ 0.557 µM) in the assay with Aspergillus fumigatus; 0.78 µg/mL (≈ 1.11 µM) in assay [2].
